The nature of this data set: Dissolution / microcapsule releasing test in phosphate buffer pH 7.2, 100 rpm, UV spectrophotometer. In kind it is physicochemical. The method, then: The test was carried out in phosphate buffer at pH 7.2 (obtained by dissolving 6.8 g of KH2 PO4 and 1.4 g of NaOH in 1 litre of demineralised water) at 100 rpm for the microcapsule dissolution test and 50 rpm for the tablet dissolution test according to the method described in European Pharmacopoeia, Ed. 4.4 of the April 2003. • dissolution in phosphate buffer at pH 7.2 (obtained by dissolving 6.8 g of KH2PO4 and 1.4 g of NaOH in 1 litre of demineralised water) at 100 rpm; the average of 5 tests has given the following results: • 30.1% after 5 minutes, 58.6% after 10 minutes, 71.0% after 15 minutes, 78.8% after 20 minutes, 86.9% after 30 minutes, • palatability: the palatability test was carried out as indicated above administering 200 mg of Ibuprofen BP 80 to each individual. […] The microcapsules obtained in Examples 1 to 3 (MC1, MC2 and MC3) were subjected to the releasing test in phosphate buffer by means of a UV spectrophotometer. In order to assist comparison the results obtained on AI as such in the same test are shown in the bottom line (see previous Experimental Part).

The results in this text go back to patent US20090074867A1, “ORALLY DISPERSIBLE PHARMACEUTICAL COMPOSITION AND PROCESS FOR THE PREPARATION THEREOF” (priority 2004, published 2009).

As for `CC(C)Cc1ccc(C(C)C(=O)O)cc1` (centres unmarked) [Ibuprofen BP 80, Ibuprofen], the “AI released, 5 min” value was determined as 30.1%; the “AI released, 10 min” value worked out at 58.6%; the “AI released, 15 min” value worked out at 71.0%; the “AI released, 20 min” value was 78.8%. The “AI released, 30 min” value was found to be 86.9%. The “AI released, 0 min” value (0 min) came out at 0%. Where the note is “listed as AI”, the “AI released, 5 min” value turned out to be 30.10%; the “AI released, 10 min” value turned out to be 58.60%; the “AI released, 15 min” value is on record as 71.00%; the “AI released, 20 min” value is given as 78.80%. Moreover, where the note is “listed as AI”, the “AI released, 30 min” value came out at 86.90%.
